Test results reported in the NIST ThermoML archive (doi:10.1021/je300590v).
± gives the expanded uncertainty stated by the source.

Test: xn = mol fraction of the nth substance listed
Conditions: Vibrating tube method

O=O [oxygen] + O=C=O
mass density [kg/m3]
Conditions | x2 = 0.8512 | x2 = 0.9558
273.15 K, 1001 kPa, Gas | 20 ± 0.2 | 21 ± 0.2
273.15 K, 2001 kPa, Gas | 41.9 ± 0.2 | 44.5 ± 0.2
273.15 K, 3000 kPa, Gas | 68 ± 0.2 | –
273.15 K, 3001 kPa, Gas | – | 74.2 ± 0.2
273.15 K, 3600 kPa, Gas | – | 97.6 ± 0.3
273.15 K, 4001 kPa, Gas | 101 ± 0.3 | –
273.15 K, 4400 kPa, Gas | 121.1 ± 0.3 | –
273.15 K, 5101 kPa, Liquid | – | 895 ± 1
273.15 K, 6000 kPa, Liquid | – | 902.5 ± 1.1
273.15 K, 7001 kPa, Liquid | – | 911.9 ± 1
273.15 K, 8001 kPa, Liquid | – | 920.4 ± 1.1
273.15 K, 9001 kPa, Liquid | – | 928.6 ± 1
273.15 K, 9013 kPa, Liquid | 798.3 ± 1.4 | –
273.15 K, 10001 kPa, Liquid | – | 936 ± 1
273.15 K, 10003 kPa, Liquid | 811.5 ± 1.4 | –
273.15 K, 11001 kPa, Liquid | 825.1 ± 1.2 | 943.1 ± 1
273.15 K, 12001 kPa, Liquid | 837.4 ± 1.1 | 949.6 ± 0.9
273.15 K, 13001 kPa, Liquid | 848.5 ± 1.1 | 955.8 ± 0.9
273.15 K, 14000 kPa, Liquid | 858.7 ± 1 | 961.5 ± 0.9
273.15 K, 15002 kPa, Liquid | 868.2 ± 1 | 967.1 ± 0.9
273.15 K, 16000 kPa, Liquid | 877 ± 1 | –
273.15 K, 16001 kPa, Liquid | – | 972.4 ± 0.9
273.15 K, 17000 kPa, Liquid | – | 977.6 ± 0.8
273.15 K, 17003 kPa, Liquid | 885.4 ± 0.9 | –
273.15 K, 18000 kPa, Liquid | 892.9 ± 0.9 | –
273.15 K, 18001 kPa, Liquid | – | 982.4 ± 0.8
273.15 K, 19001 kPa, Liquid | – | 987.2 ± 0.8
273.15 K, 19039 kPa, Liquid | 898.3 ± 1 | –
273.15 K, 20001 kPa, Liquid | – | 991.7 ± 0.8
283.15 K, 1000 kPa, Gas | – | 21 ± 0.2
283.15 K, 1002 kPa, Gas | 19.2 ± 0.2 | –
283.15 K, 2000 kPa, Gas | – | 43.2 ± 0.2
283.15 K, 2001 kPa, Gas | 39.7 ± 0.2 | –
283.15 K, 3000 kPa, Gas | 63.3 ± 0.2 | –
283.15 K, 3001 kPa, Gas | – | 69.8 ± 0.2
283.15 K, 4000 kPa, Gas | – | 103.9 ± 0.3
283.15 K, 4001 kPa, Gas | 91.1 ± 0.2 | –
283.15 K, 4700 kPa, Gas | – | 139.4 ± 0.4
283.15 K, 5000 kPa, Gas | 125.7 ± 0.3 | –
283.15 K, 6001 kPa, Gas | 175.6 ± 0.4 | –
283.15 K, 6200 kPa, Liquid | – | 819 ± 1.2
283.15 K, 7000 kPa, Liquid | – | 835.3 ± 1.2
283.15 K, 8001 kPa, Liquid | – | 849.8 ± 1.1
283.15 K, 9001 kPa, Liquid | – | 862.8 ± 1.2
283.15 K, 9610 kPa, Liquid | 686.6 ± 1.5 | –
283.15 K, 10001 kPa, Liquid | 699.4 ± 1.7 | 873.8 ± 1.1
283.15 K, 11001 kPa, Liquid | 728.8 ± 1.6 | –
283.15 K, 11004 kPa, Liquid | – | 884.1 ± 1.1
283.15 K, 12000 kPa, Liquid | – | 893.2 ± 1
283.15 K, 12001 kPa, Liquid | 751.4 ± 1.4 | –
283.15 K, 13000 kPa, Liquid | 770.5 ± 1.3 | 901.9 ± 1
283.15 K, 14001 kPa, Liquid | 786.6 ± 1.2 | –
283.15 K, 14002 kPa, Liquid | – | 909.9 ± 0.9
283.15 K, 15000 kPa, Liquid | 800 ± 1.1 | 917.3 ± 0.9
283.15 K, 16001 kPa, Liquid | 812.4 ± 1.1 | 924.2 ± 0.9
283.15 K, 17000 kPa, Liquid | – | 930.8 ± 0.9
283.15 K, 17001 kPa, Liquid | 823.5 ± 1 | –
283.15 K, 18001 kPa, Liquid | – | 937 ± 0.9
283.15 K, 19001 kPa, Liquid | – | 943 ± 0.8
283.15 K, 20003 kPa, Liquid | – | 948.7 ± 0.8
293.15 K, 1000 kPa, Gas | – | 22.8 ± 0.2
293.15 K, 1001 kPa, Gas | 18.7 ± 0.2 | –
293.15 K, 2000 kPa, Gas | 38.1 ± 0.2 | –
293.15 K, 2002 kPa, Gas | – | 42.6 ± 0.2
293.15 K, 3001 kPa, Gas | 59.8 ± 0.2 | 66.2 ± 0.2
293.15 K, 4001 kPa, Gas | 84.6 ± 0.2 | 95.2 ± 0.2
293.15 K, 5000 kPa, Gas | – | 132.4 ± 0.3
293.15 K, 5003 kPa, Gas | 113.5 ± 0.3 | –
293.15 K, 6001 kPa, Gas | – | 190.2 ± 0.4
293.15 K, 6002 kPa, Gas | 148.8 ± 0.4 | –
293.15 K, 7000 kPa, Gas | 194.6 ± 0.4 | –
293.15 K, 7402 kPa, Liquid | – | 718 ± 1.5
293.15 K, 8001 kPa, Gas | 260.9 ± 0.5 | –
293.15 K, 8002 kPa, Liquid | – | 747 ± 1.3
293.15 K, 8600 kPa, Gas | 316 ± 0.6 | –
293.15 K, 9001 kPa, Liquid | – | 775.6 ± 1.2
293.15 K, 9801 kPa, Fluid (supercritical or subcritical phases) | 460.3 ± 0.9 | –
293.15 K, 10001 kPa, Fluid (supercritical or subcritical phases) | 481.5 ± 1 | –
293.15 K, 10001 kPa, Liquid | – | 797.4 ± 1.4
293.15 K, 11001 kPa, Liquid | 564.7 ± 2.1 | –
293.15 K, 11002 kPa, Liquid | – | 813.9 ± 1.3
293.15 K, 12001 kPa, Liquid | 617.8 ± 1.8 | –
293.15 K, 12002 kPa, Liquid | – | 828.6 ± 1.2
293.15 K, 13000 kPa, Liquid | – | 841.3 ± 1.1
293.15 K, 13002 kPa, Liquid | 657.7 ± 1.6 | –
293.15 K, 14000 kPa, Liquid | – | 852.2 ± 1.1
293.15 K, 14001 kPa, Liquid | 686.2 ± 1.4 | –
293.15 K, 15001 kPa, Liquid | 710.2 ± 1.3 | 862.4 ± 1
293.15 K, 16001 kPa, Liquid | 730.8 ± 1.2 | 871.6 ± 1
293.15 K, 17000 kPa, Liquid | – | 880.2 ± 1
293.15 K, 17002 kPa, Liquid | 747.7 ± 1.1 | –
293.15 K, 18000 kPa, Liquid | – | 888.3 ± 0.9
293.15 K, 19001 kPa, Liquid | – | 895.9 ± 0.8
293.15 K, 20000 kPa, Liquid | – | 902.8 ± 0.8
